Data: patent US9180111B2, “Reduction in complement activation and inflammation during tissue injury by carotenoids, carotenoid analogs, or derivatives thereof” (Cardax Pharma, Inc., priority 2005, dated 2015)

How the values were obtained:
[1] = system: mongrel canines; conditions: 50 mg/kg i.v., four days; cited from earlier work
[2] = system: New Zealand white rabbits; experiment: Myocardial infarct size after 30 min LAD coronary artery occlusion and 3 h reperfusion (tetrazolium method); assay type: in vivo, rabbit
Procedure: Male New Zealand white rabbits (2.3-2.6 kg) were assigned randomly to two separate groups. Each animal received DDA aqueous formulation (50 mg/kg), or an equal volume of sterile NaCl solution, once per day intravenously. The dose of DDA was selected based on the findings of previous investigations in which it was determined that a dosing regimen over four days produced statistically significant myocardial salvage in Sprague-Dawley rats (41% mean salvage at 50 mg/kg) and mongrel canines (68% mean salvage at 50 mg/kg) after ischemia and reperfusion (Gross and Lockwood, 2004; Gross and Lockwood, In Press). The animals in each group received the respective treatments on each of four consecutive days, with the experimental protocol being initiated on fifth day.
One day after the last treatment (DDA or placebo), rabbits were anesthetized with a combination of xylazine (3.0 mg/kg) and ketamine (35 mg/kg) administered intramuscularly, followed by an intravenous injection of sodium pentobarbital (15 mg/kg). An endotracheal tube was inserted and the animals were placed on a positive pressure ventilator (Harvard Apparatus, Cambridge, Mass.). The right jugular vein was cannulated for blood sampling and the right carotid artery was instrumented with a Millar catheter micro-tip pressure transducer (Millar Instruments Inc., Houston, Tex.). The Millar catheter transducer was positioned immediately above the aortic valves to monitor aortic blood pressure. The lead II electrocardiogram was monitored throughout the protocol. A left thoracotomy and pericardiotomy were performed, followed by identification of the left anterior descending coronary artery. A silk suture (3-0; Genzyme Corporation, Fall River, Mass.) was passed under the artery and around a short length of polyethylene tubing. […] Coronary artery occlusion was maintained for 30 min after which time reperfusion was initiated by withdrawing the polyethylene tubing. […]

[3] = system: superoxide anion; experiment: Direct superoxide anion scavenging by EPR spectroscopy (DEPMPO spin-trap) in PMA-stimulated isolated human neutrophils; assay type: cell-based; conditions: aqueous phase
Procedure: Human polymorphonuclear leukocytes (PMNs) were isolated from freshly sampled venous blood of a single volunteer by Percoll density gradient centrifugation as described previously. Briefly, each 10 mL of whole blood was mixed with 0.8 mL of 0.1 M EDTA and 25 mL of saline. The diluted blood was then layered over 9 mL of Percoll at a specific density of 1.080 g/mL. After centrifugation at 400×g for 20 min at 20° C., the plasma, mononuclear cell, and Percoll layers were removed. Erythrocytes were subsequently lysed by addition of 18 mL of ice-cold water for 30 s, followed by 2 mL of 10×PIPES buffer (25 mM PIPES, 110 mM NaCl, and 5 mM KCl, titrated to pH 7.4 with NaOH). Cells were then pelleted at 4° C., the supernatant was decanted, and the procedure was repeated. […] Afterward, PMNs were counted by light microscopy on a hemocytometer. […] The microwave frequency was measured with a Model 575 microwave counter (EIP Microwave, Inc., San Jose, Calif.). […]
Instrument settings used in the spin-trapping experiments were as follows: modulation amplitude, 0.32 G; time constant, 0.16 s; scan time, 60 s; modulation frequency, 100 kHz; microwave power, 20 milliwatts; and microwave frequency, 9.76 GHz. The samples were placed in a quartz EPR flat cell, and spectra were recorded. The component signals in the spectra were identified and quantified as reported previously.

[4] = oral administration to black mice (Showalter et al. 2004); cited from earlier work

SMILES: CC1=C(/C=C/C(C)=C/C=C/C(C)=C/C=C/C=C(C)/C=C/C=C(C)/C=C/C2=C(C)C(=O)C(OC(=O)CCC(=O)O)CC2(C)C)C(C)(C)CC(OC(=O)CCC(=O)O)C1=O (stereo not drawn) [DDA, disodium disuccinate astaxanthin]
- mean myocardial salvage [1]: 68%
- mean myocardial salvage ([2]; 50 mg/kg daily i.v. for four days, versus placebo): 51%
- mean infarct size expressed as a percentage of the area at risk ([2]; 50 mg/kg/day i.v. for 4 days, 30 min occlusion, 3 h reperfusion, mean ± S.E.M.): 25.8±4.2%
- heart rate, blood pressure, blood gases versus saline group ([2]; baseline and throughout protocol on day 5): No differences
- direct aqueous superoxide anion scavenging [3]: potent direct scavengers of superoxide anion
- plasma clearance of free astaxanthin and tissue/serum ratios [4]: Rapid plasma clearance of free astaxanthin, and excellent myocardium- and hepatic/serum ratios
